≈ marks a conversion by molar mass, not a printed value. Like-named read-outs stand apart in the source and are kept apart here.
Assays:
[1] = test system: Streptococcus pyogenes A65; assay: In vivo efficacy against the intraperitoneal infection of mice by Streptococcus pyogenes A65; conditions: A65, 336 h, male ddY mice, ip infection 4 LD50, oral, twice (5 minutes and 6 hours after infection), survival after 2 weeks
Method: (§1) Each group of 8 male mice (ddY strain, approximately 20 g) was intravenously infected with 6 LD50 of Staphylococcus aureus No. 50774 in 0.85% saline. The test compounds were each suspended in 0.2% carboxymethyl cellulose and administered orally in graded doses (200, 100, 50, 25, 12.5, 6.3, 3.1 mg/kg, etc.) to the infected mice twice, about 5 minutes and 6 hours after infection. Survival rates were determined after 2 weeks and the ED50 was calculated in accordance with Probit method.
(3) In vivo efficacy against the intraperitoneal infection of mice by Streptococcus pyogenes A65
Each group of 8 male mice (ddY strain, approximately 20 g) was intraperitoneally infected with 4 LD50 of Streptococcus pyogenes A65 suspended in Brain Heart Infusion Broth. The subsequent procedures were the same as those described in (2).

[2] = test system: Staphylococcus aureus No. 50774; assay: In vitro antibacterial activity (MIC), Staphylococcus aureus No. 50774; assay type: cell-based
Method: (§2) (1) In vitro antibacterial activity against 9 strains of bacteria (Gram-positive bacteria: 4 strains, Gram-negative bacteria: 5 strains)
(§3) The test compounds were dissolved in distilled water at a concentration of 1 mg/ml with equimolar NaOH. Then graded concentrations (300, 100, 30, 10, 3 μg/ml, etc.) were made by serial dilution with distilled water. Each solution of test compound (0.5 ml) was pipetted into 4.5 ml of medium in a tube. The media used were Brain Heart Infusion Broth, pH 7.4, for Streptococcus and nutrient broth [10 g of Polypepton, 10 g of Meat Extract, and 2.5 g of NaCl in 1 liter of distilled water], pH 7.0, for the other bacteria. One drop of a bacterial suspension freshly cultured and diluted so as to contain 10 to 100 minimal growing units in the medium was inoculated into the tube. The tubes were incubated at 37° C. for 48 hours. The minimal inhibitor concentration (MIC) was defined as the lowest concentration in which no visible growth of the bacteria was detected.

[3] = test system: Salmonella typhimurium S-9; assay: In vitro antibacterial activity (MIC), Salmonella typhimurium S-9; assay type: cell-based; conditions: Salmonella enterica
Method: as §2, §3

[4] = test system: Streptococcus pyogenes A65; assay: In vitro antibacterial activity (MIC), Streptococcus pyogenes A65; assay type: cell-based; conditions: Brain Heart Infusion Broth pH 7.4, 37° C., 48 hours
Method: as §2, §3

Escherichia coli K-12 = assay: In vitro antibacterial activity (MIC), Escherichia coli K-12; assay type: cell-based
Method: as §2, §3

Escherichia coli P-5101 [5] = assay: In vitro antibacterial activity (MIC), Escherichia coli P-5101; assay type: cell-based
Method: as §2, §3

Shigella sonnei EW33 = assay: In vitro antibacterial activity (MIC), Shigella sonnei EW33; assay type: cell-based; conditions: nutrient broth pH 7.0, 37° C., 48 hours
Method: as §2, §3

Proteus vulgaris OX-19 = assay: In vitro antibacterial activity (MIC), Proteus vulgaris OX-19; assay type: cell-based
Method: as §2, §3

[6] = test system: Staphylococcus aureus No. 50774; assay: In vivo efficacy against the intravenous infection of mice by Staphylococcus aureus No. 50774; conditions: NO.50774, 336 h, male ddY mice, iv infection 6 LD50, oral, twice (5 minutes and 6 hours after infection), survival after 2 weeks
Method: (2) in vivo efficacy against the intravenous infection of mice by Staphylococcus aureus No. 50774
as §1

[7] = test system: Staphylococcus aureus Terajima; assay: In vitro antibacterial activity (MIC), Staphylococcus aureus Terajima; assay type: cell-based
Method: as §2, §3

[8] = test system: Staphylococcus aureus No. 10; assay: In vitro antibacterial activity (MIC), Staphylococcus aureus No. 10; assay type: cell-based
Method: as §2, §3

Staphylococcus aureus [9] = conditions: Antimicrob. Agents Chemother.; cited from earlier work
Escherichia coli P-5101 [10] = assay: In vivo efficacy against the intraperitoneal infection of mice by Escherichia coli p-5101; conditions: P5101, 336 h, male ddY mice, ip infection 9 LD50, 4% gastric mucin, oral, twice (5 minutes and 6 hours after infection), survival after 2 weeks
Method: as §1
(4) in vivo efficacy against the intraperitoneal infection of mice by Escherichia coli p-5101
Each group of 8 male mice (ddY strain, approximately 20 g) was intraperitoneally infected with 9 LD50 of Escherichia coli p-5101 suspended in Trypto-Soy Broth supplemented with 4% gastric mucin. The subsequent procedures were the same as those described in (2).

Staphylococcus aureus [11] = conditions: compounds of U.S. Pat. Nos. 3,887,557 and 3,950,338; cited from earlier work
Staphylococcus aureus [12] = conditions: compounds of U.S. Pat. Nos. 3,887,557 and 3,950,338; cited from earlier work; remark: listed apart in the source
mice = assay: in vivo
Source text: (§4) (5) acute toxicity in mice
(§5) Female ddY strain mice, weighing 25 to 33 g, were used. Test compounds were suspended in 0.2% carboxymethyl cellulose for oral administration, and dissolved in NaOH solution (final pH 8.8-9.2) for intravenous administration.

in vivo = conditions: mouse, in vivo, female ddY mice, Behrens-Kaerber method
Source text: as §4, §5

[13] = test system: Gram-positive and Gram-negative bacteria; assay: Antibacterial activity against Gram-positive and Gram-negative bacteria (summary statement); conditions: in words
[14] = Staphylococcus aureus No. 50774, nutrient broth pH 7.0, 37° C., 48 hours, read-out: MIC
[15] = Escherichia coli, K12, 48 h, pH 7
[16] = Escherichia coli, P5101, 48 h, pH 7
[17] = Proteus vulgaris, OX19, 48 h, pH 7
[18] = Staphylococcus aureus Terajima, nutrient broth pH 7.0, 37° C., 48 hours, read-out: MIC
[19] = Staphylococcus aureus No. 10, nutrient broth pH 7.0, 37° C., 48 hours, read-out: MIC
[20] = Staphylococcus aureus, NO.50774, 48 h, pH 7
[21] = K12, Escherichia coli K-12, nutrient broth pH 7.0, 37° C., 48 hours, read-out: MIC
[22] = P5101, Escherichia coli P-5101, nutrient broth pH 7.0, 37° C., 48 hours, read-out: MIC
[23] = OX19, Proteus vulgaris OX-19, nutrient broth pH 7.0, 37° C., 48 hours, read-out: MIC
[24] = oral, 7 days, read-out: LD50 (oral administration)

SMILES | ED50 [1] | MIC [2, 14] | MIC ([3]; TYPHIMURIUM, 48 h, pH 7) | MIC [4] | MIC (Escherichia coli K-12; [15]) | MIC (Escherichia coli P-5101 [5]; [16]) | MIC (Shigella sonnei EW33) | MIC (Proteus vulgaris OX-19; [17]) | ED50 [6] | MIC [7, 18] | MIC [8, 19] | effect on systemic infection by Staphylococcus aureus (Staphylococcus aureus [9]) | ED50 (Escherichia coli P-5101 [10]) | in vitro activities against Staphylococcus aureus (Staphylococcus aureus [11]) | MIC [2, 20] | MIC (Escherichia coli K-12; [21]) | MIC (Escherichia coli P-5101 [5]; [22]) | in vivo activities against Staphylococcus aureus (Staphylococcus aureus [12]) | MIC (Proteus vulgaris OX-19; [23]) | LD50 at 168 h (in vivo; [24]) | further results
CCn1cc(C(=O)O)c(=O)c2cnc(N3CCNCC3)nc21 [Compound PPA, 2-(1-piperazinyl)-8-ethyl-5,8-dihydro-5-oxopyrido [2,3-d]pyrimidine-6-carboxylic acid] | > 100 mg/kg | 10 µg/mL (≈ 33 µM) | 1 µg/mL (≈ 3.3 µM) | 100 µg/mL (≈ 330 µM) | 1 µg/mL (≈ 3.3 µM) | 1 µg/mL (≈ 3.3 µM) | 1 µg/mL (≈ 3.3 µM) | 3 µg/mL (≈ 9.89 µM) | 238 mg/kg | 30 µg/mL (≈ 98.9 µM) | 10 µg/mL (≈ 33 µM) | only extremely weak effect | 21.2 mg/kg | – | – | – | – | – | – | – | –
CCn1cc(C(=O)O)c(=O)c2cnc(N3CCN(Cc4ccc(Cl)cc4)CC3)nc21 [Compound 3, 2-[4-(p-Chlorobenzyl)-1-piperazinyl]-8-ethyl-5,8-dihydro-5-oxopyrido[2,3-d]pyrimidine-6-carboxylic acid] | > 100 mg/kg | – | – | 30 µg/mL (≈ 70.1 µM) | – | – | 3 µg/mL (≈ 7.01 µM) | – | > 100 mg/kg | 10 µg/mL (≈ 23.4 µM) | 10 µg/mL (≈ 23.4 µM) | – | – | relatively strong | 3 µg/mL (≈ 7.01 µM) | 10 µg/mL (≈ 23.4 µM) | 30 µg/mL (≈ 70.1 µM) | weak | 10 µg/mL (≈ 23.4 µM) | – | MIC ([3]; Salmonella typhimurium S-9, nutrient broth pH 7.0, 37° C., 48 hours, read-out: MIC): 10 µg/mL (≈ 23.4 µM)
CCn1cc(C(=O)O)c(=O)c2cnc(N3CCCC3)nc21 [Compound PA, 2-pyrrolidino-8-ethyl-5,8-dihydro-5-oxopyrido [2,3-d]pyrimidine-6-carboxylic acid] | > 100 mg/kg | 10 µg/mL (≈ 34.7 µM) | 3 µg/mL (≈ 10.4 µM) | 300 µg/mL (≈ 1040 µM) | – | – | 3 µg/mL (≈ 10.4 µM) | – | > 200 mg/kg | 10 µg/mL (≈ 34.7 µM) | 10 µg/mL (≈ 34.7 µM) | only extremely weak effect | 36.6 mg/kg | – | – | 1 µg/mL (≈ 3.47 µM) | 10 µg/mL (≈ 34.7 µM) | – | 1 µg/mL (≈ 3.47 µM) | > 2000 mg/kg | LD50 (intravenous administration) (mice; female ddY mice, iv, NaOH solution final pH 8.8-9.2, 7 days, Behrens-Kaerber method): 268 mg/kg
CCn1cc(C(=O)O)c(=O)c2cnc(N3CCN(Cc4ccc(N)cc4)CC3)nc21 [Compound AT-1826, 2-[4-(p-Aminobenzyl)-1-piperazinyl]-8-ethyl-5,8-dihydro-5-oxopyrido[2,3-d]pyrimidine-6-carboxylic acid] | 47.7 mg/kg | – | 3 µg/mL (≈ 7.34 µM) | 30 µg/mL (≈ 73.4 µM) | 1 µg/mL (≈ 2.45 µM) | 3 µg/mL (≈ 7.34 µM) | 1 µg/mL (≈ 2.45 µM) | 3 µg/mL (≈ 7.34 µM) | 7.2 mg/kg | – | – | – | 35.6 mg/kg | – | 1 µg/mL (≈ 2.45 µM) | – | – | – | – | > 2000 mg/kg | antibacterial activities against Gram-positive and Gram-negative bacteria [13]: excellent antibacterial activities; toxicity (mice; in words): low toxicity; LD50 at 168 h (in vivo; iv, NaOH solution final pH 8.8-9.2, 7 days, read-out: LD50 (intravenous administration)): 354 mg/kg; MIC ([7]; Staphylococcus aureus, 48 h, pH 7): 3 µg/mL (≈ 7.34 µM); MIC ([8]; Staphylococcus aureus, NO.10, 48 h, pH 7): 3 µg/mL (≈ 7.34 µM)
CCn1cc(C(=O)O)c(=O)c2cnc(N3CCN(Cc4ccccc4)CC3)nc21 [Compound 1, 2-(4-Benzyl-1-piperazinyl)-8-ethyl-5,8-dihydro-5-oxopyrido[2,3-d]-pyrimidine-6-carboxylic acid] | > 100 mg/kg | – | 3 µg/mL (≈ 7.62 µM) | 100 µg/mL (≈ 254 µM) | 3 µg/mL (≈ 7.62 µM) | – | 3 µg/mL (≈ 7.62 µM) | 3 µg/mL (≈ 7.62 µM) | ~50 mg/kg | 10 µg/mL (≈ 25.4 µM) | 10 µg/mL (≈ 25.4 µM) | – | – | relatively strong | 3 µg/mL (≈ 7.62 µM) | – | 10 µg/mL (≈ 25.4 µM) | weak | – | – | –
CCn1cc(C(=O)O)c(=O)c2cnc(N3CCN(Cc4ccc(OC)cc4)CC3)nc21 [Compound 2, 2-[4-(p-Methoxybenzyl)-1-piperazinyl]-8-ethyl-5,8-dihydro-5-oxopyrido[2,3-d]pyrimidine-6-carboxylic acid] | > 100 mg/kg | – | 3 µg/mL (≈ 7.08 µM) | 100 µg/mL (≈ 236 µM) | 3 µg/mL (≈ 7.08 µM) | – | 3 µg/mL (≈ 7.08 µM) | – | 54.5 mg/kg | 10 µg/mL (≈ 23.6 µM) | 10 µg/mL (≈ 23.6 µM) | – | – | relatively strong | 3 µg/mL (≈ 7.08 µM) | – | 10 µg/mL (≈ 23.6 µM) | weak | 10 µg/mL (≈ 23.6 µM) | – | –

From patent US4125615A, “2-[4-(P-Aminobenzyl)-1-piperazinyl]-8-ethyl-5,8-dihydro-5-oxopyrido[2,3-d]p y” (priority 1976, dated 1978)
